Measured values: PMC3183052, “Immunoprotectivity of HLA-A2 CTL Peptides Derived from Respiratory Syncytial Virus Fusion Protein in HLA-A2 Transgenic Mouse” (PLoS ONE, 2011)

Tests used:
HLA-A*0201 = target: T1, HLA-A*0201 (Homo sapiens, UniProt P04439, D140Y/D185E/D98H/E176V/E277Q/G131W/G231S/I119V/I121R/I166T/I218V/L300P/L318F/N151K/N90K/P208A/P217A/Q86G/Q94H/R138H/R169H/T345S); experiment: T2 cell-stabilization assay (T2-binding); details: for T2-binding Ratio of MFI: T2 cells 5×10^5, peptide 50 µg/mL + β2-microglobulin 5 µg/mL, 28°C 16–18 h, then brefeldin A 10 µg/mL 37°C 3 h, FITC anti-HLA-A2, flow cytometry, MFI relative to negative control HCV C55-74 (set as 1)
T1 construct: Human T2 cells (purchased from the American Type Culture Collection, ATCC) (ATCC No. CRL-1992) expressing the HLA-A*0201 gene; endogenous in cells; host or cells: human T2 cells (ATCC CRL-1992)
Experimental: T2 cells (5×10^5) cultured in 96-well U-bottom plates were incubated with the individual 9-mer synthetic peptides (50 µg/mL) and β2-microglobulin (5 µg/mL; Sigma-Aldrich) at 28°C for 16–18 hours. Subsequently, brefeldin A (10 µg/mL) was added and the cells were incubated at 37°C for another 3 hours, then washed and stained with fluorescence isothiocyanate (FITC)-conjugated mouse anti-human HLA-A2 antibody (SeroTec). Peptide-loaded T2 cells were acquired and analyzed on the FACScan flow cytometer using CellQuest software (Becton Dickinson). GLC-9 peptide was used as positive control (PC). The mean fluorescence intensity (MFI) represents the binding affinity of each peptide compared to MFI (set as MFI = 1) obtained from negative control (NC), which is T2 cells loaded with HCV peptide C55-74.
Twenty-five 9-mer synthetic peptides derived from the RSV F glycoprotein sequence presumed to encompass HLA-A*0201 binding motifs were synthesized (Table 1). Each was tested for its ability to bind HLA-A*0201 molecules by T2 cell-based binding assay (data not shown). The relative mean fluorescence intensity (MFI) obtained from the positive control (PC) peptide derived from Epstein-Barr virus capsid protein (GLC-9, a previously defined HLA-A*0201-restricted CTL epitope) was twofold (MFI = 1.96) compared to the baseline MFI = 1 obtained from the negative control (NC) treated with an unrelated peptide HCV C55-74 (a C57BL/6-specific CD4 epitope). […] The remaining peptides had no detectable binding to the HLA-A*0201 molecules. Apparently, the different MFIs generated by binding of RSV F-derived peptides to HLA-A*0201 reflects on the binding specificity of different peptides to a given HLA molecule.

[1] = tested on: splenocytes from HLA-A*0201 transgenic C57BL/6 mice; experiment: IFN-γ ELISPOT of splenocytes restimulated with peptide; type: cell-based, mouse; details: for IFN-γ ELISPOT, RSV: splenocytes of HLA-Tg B6 mice primed and boosted i.n. with 10^4 pfu RSV-B1; for IFN-γ ELISPOT, RSV / IFN-γ ELISPOT, rAd-F0: restimulated with 2 µg peptide, representative of two experiments, five mice per group; for IFN-γ ELISPOT, rAd-F0: splenocytes of HLA-Tg B6 mice primed and boosted i.n. with 10^7 pfu rAd-F0; for IFN-γ level in restimulated splenocytes (ELISPOT, text grading): splenocytes of rAd-F0- or RSV B1-primed and boosted HLA-Tg B6 mice, high = over 100 spots, moderate = over 50 spots
Experimental: (§1) To screen the immunodominance of epitopic peptide in the induction of RSV-F specific Th1/Th2 expression, HLA-A*0201 transgenic C57BL/6 mice were anesthetized with isoflurane and immunized with 1×10^7 pfu/50 µL of rAd-F0 or rAd-LacZ or 1×10^4 live RSV B1 via the intranasal (i.n.) route. Twenty days later, the mice were given booster immunization i.n. with the same dose. After 10 days of boost, mice were sacrificed and splenocytes were isolated for the cytokine ELISPOT assay. For peptide-based vaccination, transgenic mice were immunized subcutaneously (s.c.) with 50 µg of the individual synthetic peptides emulsified in 25 µL of incomplete Freund's adjuvant (IFA) (Sigma-Aldrich) and then boosted after 10 days s.c. with the same dose of the respective peptides mixed with IFA. Mice were sacrificed 7 days after the booster and splenocytes were isolated for in vitro peptide-restimulation. For challenge studies, 10^7 pfu of live RSV-B1 was administered i.n. seven days after the booster immunization with peptide vaccines. Mice were sacrificed on day 4 post-challenge and the lung tissues were collected and subjected to further analysis by flow cytometry, ELISA, CTL assay and immunohistochemistry. Mice body weight was monitored daily.
(§2) […] RBC-free splenocyte suspensions prepared from the individual mice were seeded in individual wells of 96-well filtration plates (Millipore) precoated with capturing monoclonal antibodies for murine IL-2, IL-4 or IFN-γ (0.5 µg/ well) (eBioscience) and blocked with conditioned medium (CM) for 1 hour at room temperature. The splenocytes were added with the individual RSV F 9-mer synthetic peptides (2 µg each) or GLC-9 dissolved in CM (100 µL). The splenocytes added with Con A (10 µg/mL) were used as positive control. Unstimulated splenocytes were used as negative control. The plates were kept in a 37°C incubator equilibrated with 5% CO2 for 48 hours. The individual wells of the ELISPOT plates were washed three times with washing buffer (0.05% tween20 in PBS, PBS-T), and then 0.2 µg of the corresponding biotinylated detection monoclonal antibodies specific for IL-2, IL-4 and IFN-γ were added to detect the respective cytokines. After 2 hours of incubation at room temperature, the plates were washed and 100 µl of streptavidin-alkaline phosphatase (1∶ 250 dilution) was added to the individual wells, and the plates were incubated at room temperature for 45 minutes. Finally, the plates were washed four times with the wash buffer, and 100 µl of AEC (3-amine-9-ethylcarbazole, Sigma-Aldrich) substrate was added to each well and allowed to react for 30 minutes at room temperature in the dark. The plates were then washed with water, air-dried overnight, and the spots per well were scored using the immunospot counting reader (C.T.L. IMMUNOSPOT, CELLULAR TECHNOLOGY LTD). Results were expressed as the number of cytokine-secreting cells per 5×10^5 splenocytes seeded in the initial culture.
(§3) Figure 1 Induction of IFN-γ and IL-2 in splenocytes from RSV F peptide immunized HLA-A*0201 transgenic mice upon secondary recall. Splenocytes harvested on day 30 from HLA-A-Tg B6 mice primed and boosted at 20 days interval intranasally with 10^7 pfu of rAd-F0 (□) or 10^4 pfu of RSV-B1 (▪)were restimulated with 2 µg of the individual RSV F peptide or 10 µg/ml Con A for 5 days in the presence of murine IL-2 . After stimulation, 5×10^5 splenocytes were seeded to anti-IFN-γ (A) or anti-IL-2 (B) capture antibody coated ELISPOT plates for 2 days for ELISPOT assay as described in Materials and Methods. Cytokine-positive immunospots were developed and the results are expressed as the number of immunospots +/−2 standard deviations for each experimental group. Data is representative of results derived from two independent experiments, each with five mice per group.

[2] = tested on: splenocytes from HLA-A*0201 transgenic C57BL/6 mice; experiment: IL-2 ELISPOT of splenocytes restimulated with peptide; type: cell-based, mouse; details: for IL-2 ELISPOT, RSV: splenocytes of HLA-Tg B6 mice primed and boosted i.n. with 10^4 pfu RSV-B1; for IL-2 ELISPOT, RSV / IL-2 ELISPOT, rAd-F0: restimulated with 2 µg peptide, representative of two experiments, five mice per group; for IL-2 ELISPOT, rAd-F0: splenocytes of HLA-Tg B6 mice primed and boosted i.n. with 10^7 pfu rAd-F0
Experimental: as §1, §2, §3

splenocytic CD4+ T cells = experiment: CFSE proliferation of CD4+ T cells after in vitro peptide restimulation; type: cell-based, mouse; details: mice immunized s.c. twice with 50 µg peptide in IFA; splenocytes restimulated with 10 µg/mL peptide for 8 days
Experimental: (§4) To screen the immunodominance of epitopic peptide in the induction of RSV-F specific Th1/Th2 expression, HLA-A*0201 transgenic C57BL/6 mice were anesthetized with isoflurane and immunized with 1×10^7 pfu/50 µL of rAd-F0 or rAd-LacZ or 1×10^4 live RSV B1 via the intranasal (i.n.) route. Twenty days later, the mice were given booster immunization i.n. with the same dose. After 10 days of boost, mice were sacrificed and splenocytes were isolated for the cytokine ELISPOT assay. […] Mice body weight was monitored daily.
(§5) The splenocytes were isolated, labeled with 5-(6)-carboxyfluorescein diacetate succinimidyl ester (CFSE) (Sigma-Aldrich) and stimulated in vitro with 10 µg/mL of the synthetic peptides for 4 or 8 days. Proliferation of splenocytic CD4^+ and CD8^+ T cells was analyzed by flow cytometry (BD FACSCalibur) using PE-Cy5-labeled specific antibody against CD4 (eBioscience) or CD8 (eBioscience), respectively. Cell division index (CDI), a ratio of CFSE-diluted CD4^+ or CD8^+ T cells stimulated by peptide to CFSE-diluted unstimulated CD4^+ or CD8^+ T cells, was calculated as shown below; [drawing 1] […]
(§6) Figure 2 Epitope-specific CD4^+ and CD8^+ T-cell activation in peptide-immunized HLA-A*0201 transgenic mice. […] Proliferation of CD4^+ (A) or CD8^+ (B) lymphocytes in response to the different CD8 epitopes was analyzed by flow cytometry using anti-CD4 or CD8 antibodies conjugated with PE-Cy5. […]

splenocytic CD8+ T cells = experiment: CFSE proliferation of CD8+ T cells after in vitro peptide restimulation; type: cell-based, mouse; details: mice immunized s.c. twice with 50 µg peptide in IFA; splenocytes restimulated with 10 µg/mL peptide for 8 days
Experimental: as §4, §5, §6

| Sequence | T2-binding Ratio of MFI (HLA-A*0201) | IFN-γ ELISPOT, RSV [1] | IFN-γ ELISPOT, rAd-F0 [1] | IL-2 ELISPOT, RSV [2] | IL-2 ELISPOT, rAd-F0 [2] | proliferation of CD4+ T cells (cell division index) (splenocytic CD4+ T cells) | proliferation of CD8+ T cells (cell division index) (splenocytic CD8+ T cells) | IFN-γ level in restimulated splenocytes (ELISPOT, text grading) [1] | binding affinity, MFI higher than the baseline (HLA-A*0201; T2 cell-based binding assay, baseline = negative control HCV C55-74, called modest binding affinity) | IL-2 level in restimulated splenocytes (ELISPOT, text grading) ([2]; splenocytes of rAd-F0- or RSV B1-primed and boosted HLA-Tg B6 mice, high = over 100 spots, moderate = over 50 spots) |
| --- | --- | --- | --- | --- | --- | --- | --- | --- | --- | --- |
| KIMTSKTDV [peptide 17, HLA-A*0201-restricted 9-mer synthetic peptide from F protein of RSV-B1 strain] | 0.95 | 2.5 cytokine-secreting cells per 5×10^5 splenocytes | 24.5 cytokine-secreting cells per 5×10^5 splenocytes | 6.5 cytokine-secreting cells per 5×10^5 splenocytes | 24.5 cytokine-secreting cells per 5×10^5 splenocytes | insignificant proliferation | could not induce proliferation | – | – | – |
| LLWVLLLWV [peptide 2, HLA-A*0201-restricted 9-mer synthetic peptide from F protein of RSV-B1 strain] | 0.97 | 46.5 cytokine-secreting cells per 5×10^5 splenocytes | 46.5 cytokine-secreting cells per 5×10^5 splenocytes | 42 cytokine-secreting cells per 5×10^5 splenocytes | 34.5 cytokine-secreting cells per 5×10^5 splenocytes | – | – | over 50 spots | – | – |
| TLLLWVLLL [peptide 1, HLA-A*0201-restricted 9-mer synthetic peptide from F protein of RSV-B1 strain] | 1.19 | 69.5 cytokine-secreting cells per 5×10^5 splenocytes | 33.5 cytokine-secreting cells per 5×10^5 splenocytes | 39.5 cytokine-secreting cells per 5×10^5 splenocytes | 85.5 cytokine-secreting cells per 5×10^5 splenocytes | – | – | over 50 spots | ~10% | over 50 spots |
